27 molecules from patent US9464082B2, “Aryl and arylalkyl substituted pyrazolyl and pyrimidinyl tricyclic enones as antioxidant inflammation modulators” (AbbVie Inc., priority 2014, dated 2016) can be followed below.

Structures are written as SMILES. pIC50: −log10 of the molar value.

The assay has as its system IFNγ-Induced NO Production. The experiment in a line: Nitric Oxide Suppression Assay (Suppression of IFNγ-Induced NO Production). Conditions: RAW264.7; RAW 264.7 mouse macrophage cells; 2 hour pre-treatment with compound (3 μM to 0.3 nM, 10 point curve); 20 ng/mL interferon gamma, ~18 hour; Griess detection; n=2-3 in duplicates. It is filed as cell-based. In outline:
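Griess-based absorbance read (520–550 nm) of supernatant after RAW 264.7 mouse macrophages received 10-point compound dilutions (3 μM–0.3 nM, DMSO ≤1%) for 2 h, then 20 ng/mL IFNγ for ~18 h at 37 °C. Signal normalised to IFNγ-only peak; IC50 fitted to mean of n=2-3 duplicates.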
As for `CC(=O)OCCCc1cccc(-c2nc(C)nc3c2CC[C@H]2[C@H](C)C(=O)C(C#N)=C[C@]32c2ccccc2)c1` [Example 125, 3-{3-[(6aS,7S,10aR)-9-cyano-2,7-dimethyl-8-oxo-10a-phenyl-5,6,6a,7,8,10a-hexahydrobenzo[h]quinazolin-4-yl]phenyl}propyl acetate], the pIC50 was 8.33.
With `C[C@@H]1C(=O)C(C#N)=C[C@]2(c3ccccc3)c3n[nH]c(-c4cncc(CO)c4)c3CC[C@@H]12` [Example 126, (5aS,6S,9aR)-3-[5-(hydroxymethyl)pyridin-3-yl]-6-methyl-7-oxo-9a-phenyl-4,5,5a,6,7,9a-hexahydro-2H-benzo[g]indazole-8-carbonitrile], the pIC50 is 8.01.
Regarding `Cc1nc(-c2cnn(CCO)c2)c2c(n1)[C@@]1(c3ccccc3)C=C(C#N)C(=O)[C@@H](C)[C@@H]1CC2` [Example 127, (6aS,7S,10aR)-4-[1-(2-hydroxyethyl)-1H-pyrazol-4-yl]-2,7-dimethyl-8-oxo-10a-phenyl-5,6,6a,7,8,10a-hexahydrobenzo[h]quinazoline-9-carbonitrile], the pIC50 is 8.64.
For `C[C@@H]1C(=O)C(C#N)=C[C@]2(c3cccc(OCc4ccccc4)c3)c3ncncc3CC[C@@H]12` [Example 128, (6aS,7S,10aR)-10a-[3-(benzyloxy)phenyl]-7-methyl-8-oxo-5,6,6a,7,8,10a-hexahydrobenzo[h]quinazoline-9-carbonitrile], the pIC50 is 8.11.
As for `Cc1nc(-c2ccc(-c3cncnc3)cc2)c2c(n1)[C@@]1(c3ccccc3)C=C(C#N)C(=O)[C@@H](C)[C@@H]1CC2` [Example 129, (6aS,7S,10aR)-2,7-dimethyl-8-oxo-10a-phenyl-4-[4-(pyrimidin-5-yl)phenyl]-5,6,6a,7,8,10a-hexahydrobenzo[h]quinazoline-9-carbonitrile], the figure is 7.89.
For `Cc1nc(-c2cncnc2)c2c(n1)[C@@]1(c3ccccc3)C=C(C(N)=O)C(=O)[C@@H](C)[C@@H]1CC2` [Example 130, (6aS,7S,10aR)-2,7-dimethyl-8-oxo-10a-phenyl-4-(pyrimidin-5-yl)-5,6,6a,7,8,10a-hexahydrobenzo[h]quinazoline-9-carboxamide], the pIC50 was less than 5.52.
Under `C[C@@H]1C(=O)C(C(N)=O)=C[C@]2(c3ccccc3)c3ncncc3CC[C@@H]12` [Example 131, (6aS,7S,10aR)-7-methyl-8-oxo-10a-phenyl-5,6,6a,7,8,10a-hexahydrobenzo[h]quinazoline-9-carboxamide] stands 5.86.
Turning to `Cc1nc(-c2cnc(O)c(Br)c2)c2c(n1)[C@@]1(c3ccccc3)C=C(C#N)C(=O)[C@@H](C)[C@@H]1CC2` [Example 132, (6aS,7S,10aR)-4-(5-bromo-6-hydroxypyridin-3-yl)-2,7-dimethyl-8-oxo-10a-phenyl-5,6,6a,7,8,10a-hexahydrobenzo[h]quinazoline-9-carbonitrile], the pIC50 is 6.41.
As for `Cc1nc(-c2ccc(O)nc2)c2c(n1)[C@@]1(c3ccccc3)C=C(C#N)C(=O)[C@@H](C)[C@@H]1CC2` [Example 133, (6aS,7S,10aR)-4-(6-hydroxypyridin-3-yl)-2,7-dimethyl-8-oxo-10a-phenyl-5,6,6a,7,8,10a-hexahydrobenzo[h]quinazoline-9-carbonitrile], the figure is 6.51.
Under `COC(=O)c1ccc(-c2cccc(-c3nc(C)nc4c3CC[C@H]3[C@H](C)C(=O)C(C#N)=C[C@]43c3ccccc3)c2)cc1` [Example 134, methyl 3′-[(6aS,7S,10aR)-9-cyano-2,7-dimethyl-8-oxo-10a-phenyl-5,6,6a,7,8,10a-hexahydrobenzo[h]quinazolin-4-yl]biphenyl-4-carboxylate] stands 8.16; under `Cc1nc(-c2cccc(-c3ccc(C(N)=O)cc3)c2)c2c(n1)[C@@]1(c3ccccc3)C=C(C#N)C(=O)[C@@H](C)[C@@H]1CC2` [Example 135, 3′-[(6aS,7S,10aR)-9-cyano-2,7-dimethyl-8-oxo-10a-phenyl-5,6,6a,7,8,10a-hexahydrobenzo[h]quinazolin-4-yl]biphenyl-4-carboxamide], 8.09.
For the molecule `C[C@@H]1C(=O)C(C#N)=C[C@]2(c3ccccc3)c3nc(-c4ccc(C(N)=O)cc4)ncc3CC[C@@H]12` [Example 136, 4-[(6aS,7S,10aR)-9-cyano-7-methyl-8-oxo-10a-phenyl-5,6,6a,7,8,10a-hexahydrobenzo[h]quinazolin-2-yl]benzamide], the pIC50 is 8.47.
As for `C[C@@H]1C(=O)C(C#N)=C[C@]2(c3cccc(O)c3)c3ncncc3CC[C@@H]12` [Example 137, (6aS,7S,10aR)-10a-(3-hydroxyphenyl)-7-methyl-8-oxo-5,6,6a,7,8,10a-hexahydrobenzo[h]quinazoline-9-carbonitrile], the negative logarithm of the IC50 (pIC50) was 8.05.
As for `C[C@@H]1C(=O)C(C#N)=C[C@]2(c3ccccc3)c3nc(-c4ccc(C(=O)N(C)C)cc4)ncc3CC[C@@H]12` [Example 138, 4-[(6aS,7S,10aR)-9-cyano-7-methyl-8-oxo-10a-phenyl-5,6,6a,7,8,10a-hexahydrobenzo[h]quinazolin-2-yl]-N,N-dimethylbenzamide], the figure is 8.28; as for `Cc1nc(-c2ccc(-c3cncn3C)cc2)c2c(n1)[C@@]1(c3ccccc3)C=C(C#N)C(=O)[C@@H](C)[C@@H]1CC2` [Example 139, (6aS,7S,10aR)-2,7-dimethyl-4-[4-(1-methyl-1H-imidazol-5-yl)phenyl]-8-oxo-10a-phenyl-5,6,6a,7,8,10a-hexahydrobenzo[h]quinazoline-9-carbonitrile], 7.72.
Turning to `C[C@@H]1C(=O)C(C#N)=C[C@]2(c3ccccc3)c3n[nH]c(-c4ccnnc4)c3CC[C@@H]12` [Example 140, (5aS,6S,9aR)-6-methyl-7-oxo-9a-phenyl-3-(pyridazin-4-yl)-4,5,5a,6,7,9a-hexahydro-2H-benzo[g]indazole-8-carbonitrile], the pIC50 is 8.07.
Under `C[C@@H]1C(=O)C(C#N)=C[C@]2(c3ccccc3)c3n[nH]c(-c4cnn(CC(=O)O)c4)c3CC[C@@H]12` [Example 141, {4-[(5aS,6S,9aR)-8-cyano-6-methyl-7-oxo-9a-phenyl-4,5,5a,6,7,9a-hexahydro-2H-benzo[g]indazol-3-yl]-1H-pyrazol-1-yl}acetic acid] stands 8.40.
Under `COC(=O)c1cccc([C@]23C=C(C(N)=O)C(=O)[C@@H](C)[C@@H]2CCc2cncnc23)c1` [Example 142, methyl 3-[(6aS,7S,10aR)-9-carbamoyl-7-methyl-8-oxo-6,6a,7,8-tetrahydrobenzo[h]quinazolin-10a(5H)-yl]benzoate] stands 5.64.
Take `C[C@@H]1C(=O)C(C#N)=C[C@]2(c3ccccc3)c3nn(C)c(-c4ccc(-c5ccncc5)cc4)c3CC[C@@H]12` [Example 143, (5aS,6S,9aR)-2,6-dimethyl-7-oxo-9a-phenyl-3-[4-(pyridin-4-yl)phenyl]-4,5,5a,6,7,9a-hexahydro-2H-benzo[g]indazole-8-carbonitrile]: the negative logarithm of the IC50 (pIC50) was 7.16.
As for `C[C@@H]1C(=O)C(C#N)=C[C@]2(c3ccccc3)c3nn(C)c(-c4ccc(-c5cncnc5)cc4)c3CC[C@@H]12` [Example 144, (5aS,6S,9aR)-2,6-dimethyl-7-oxo-9a-phenyl-3-[4-(pyrimidin-5-yl)phenyl]-4,5,5a,6,7,9a-hexahydro-2H-benzo[g]indazole-8-carbonitrile], the figure is 7.74.
Take `Cc1nc(-c2ccc(-c3cncnc3)cc2)c2c(n1)[C@@]1(c3ccccc3)C=C(C(N)=O)C(=O)[C@@H](C)[C@@H]1CC2` [Example 145, (6aS,7S,10aR)-2,7-dimethyl-8-oxo-10a-phenyl-4-[4-(pyrimidin-5-yl)phenyl]-5,6,6a,7,8,10a-hexahydrobenzo[h]quinazoline-9-carboxamide]: the pIC50 is less than 6.00.
As for `Cc1nc(-c2ccc(N3CCOCC3)c(Br)c2)c2c(n1)[C@@]1(c3ccccc3)C=C(C#N)C(=O)[C@@H](C)[C@@H]1CC2` [Example 146, (6aS,7S,10aR)-4-[3-bromo-4-(morpholin-4-yl)phenyl]-2,7-dimethyl-8-oxo-10a-phenyl-5,6,6a,7,8,10a-hexahydrobenzo[h]quinazoline-9-carbonitrile], the figure is 7.28.
As for `Cc1nc(Nc2cccnc2)c2c(n1)[C@@]1(c3ccccc3)C=C(C#N)C(=O)[C@@H](C)[C@@H]1CC2` [Example 147, (6aS,7S,10aR)-2,7-dimethyl-8-oxo-10a-phenyl-4-(pyridin-3-ylamino)-5,6,6a,7,8,10a-hexahydrobenzo[h]quinazoline-9-carbonitrile], the figure is 7.32; as for `C[C@@H]1C(=O)C(C#N)=C[C@]2(c3ccccc3)c3nn(C)c(-c4cccc(Br)c4)c3CC[C@@H]12` [Example 148, (5aS,6S,9aR)-3-(3-bromophenyl)-2,6-dimethyl-7-oxo-9a-phenyl-4,5,5a,6,7,9a-hexahydro-2H-benzo[g]indazole-8-carbonitrile], 7.50; as for `C[C@@H]1C(=O)C(C#N)=C[C@]2(c3ccccc3)c3nn(C)c(-c4cccc(-c5ccc(N)cc5)c4)c3CC[C@@H]12` [Example 149, (5aS,6S,9aR)-3-(4′-aminobiphenyl-3-yl)-2,6-dimethyl-7-oxo-9a-phenyl-4,5,5a,6,7,9a-hexahydro-2H-benzo[g]indazole-8-carbonitrile], 8.14.
Consider `C[C@@H]1C(=O)C(C#N)=C[C@]2(c3ccccc3)c3nn(C)c(-c4cccc(-c5cccc(NS(C)(=O)=O)c5)c4)c3CC[C@@H]12` [Example 150, N-{3′-[(5aS,6S,9aR)-8-cyano-2,6-dimethyl-7-oxo-9a-phenyl-4,5,5a,6,7,9a-hexahydro-2H-benzo[g]indazol-3-yl]biphenyl-3-yl}methanesulfonamide], for which the pIC50 was 8.65.
With `C[C@@H]1C(=O)C(C#N)=C[C@]2(c3ccccc3)c3nn(C)c(-c4cccc(-c5ccnnc5)c4)c3CC[C@@H]12` [Example 151, (5aS,6S,9aR)-2,6-dimethyl-7-oxo-9a-phenyl-3-[3-(pyridazin-4-yl)phenyl]-4,5,5a,6,7,9a-hexahydro-2H-benzo[g]indazole-8-carbonitrile], the pIC50 was 8.17.
